Measured values published in patent US10065943B2, “Pyrrolidine derivatives as angiotensin II type 2 antagonists” (NOVARTIS AG, priority 2015, dated 2018).

Experiments:
human AT2 receptor = target: T1, human AT2 receptor (Homo sapiens, UniProt P50052); assay: AT2 receptor binding ([125I]CGP 42112A displacement, CHO-K1 membranes); details: [125I]CGP 42112A 0.05 nM, membranes of CHO-K1 cells expressing human AT2 receptor; Ki from IC50 by Cheng-Prussoff equation; read-out: Ki
T1 construct: membranes prepared in house
T1 sequence (P50052 1-363): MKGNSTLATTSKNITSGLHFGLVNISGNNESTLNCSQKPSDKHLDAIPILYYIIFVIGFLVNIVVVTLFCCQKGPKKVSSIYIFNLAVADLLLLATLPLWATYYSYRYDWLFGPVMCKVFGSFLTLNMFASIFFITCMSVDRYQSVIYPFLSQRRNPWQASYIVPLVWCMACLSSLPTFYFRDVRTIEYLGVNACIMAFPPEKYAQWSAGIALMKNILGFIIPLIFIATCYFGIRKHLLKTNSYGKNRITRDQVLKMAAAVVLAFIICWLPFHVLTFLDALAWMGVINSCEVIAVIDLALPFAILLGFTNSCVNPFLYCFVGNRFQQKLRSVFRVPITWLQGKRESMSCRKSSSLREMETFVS
From the text: Reagents were purchased from Sigma-Aldrich, unless otherwise specified. Dialyzed fetal bovine serum (FBS) was from Life Technologies (cat. no. 10073772). Valiscreen® human angiotensin AT2 receptor cell line (cat. no. ES-070-C), [^125I]CGP 42112A (cat. no. NEX324025UC) and MicroScint™ 40 (cat. no. 6013641) were purchased from PerkinElmer. CGP 42112A (cat. no. 2569) and PD 123,319 ditrifluoroacetate (cat. no. 1361) were from Tocris Biosciences.
• 1. Growth medium • EX-CELL® CHO DHFR^− medium • 10% FBS, dialysed • 1 mM sodium pyruvate • 2 mM L-glutamine • 2. Harvesting buffer • PBS • 2 mM EDTA • 3. Suspension buffer • 50 mM Tris-HCl, pH 7.4 • 10 mM EDTA • 4. Resuspension buffer • 50 mM Tris-HCl, pH 7.4 • 0.1 mM EDTA • 0.1% sucrose • 5. Binding assay buffer • 50 mM Tris-HCl, pH 7.4 • 5 mM MgCl2 • 1 mM EDTA • 0.1% gelatin • 6. Wash buffer • 50 mM Tris-HCl, pH 7.4 Procedure for Membrane Preparation • Valiscreen® CHO-K1 cells stably expressing the human AT2 receptor were cultured in growth medium. • Cells were seeded into T-175 flasks and grown to 70-80% confluence. • Medium was removed from confluent flasks and cells were washed with warm PBS. • Cells were harvested by incubating with harvesting buffer for 10 min at 37° C., and then transferred to a centrifuge tube on ice. • Cells were centrifuged at 200 g for 5 min at 4° C. • Cell pellets were homogenised in ice-cold suspension buffer. • Homogenates were centrifuged at 40,000 g for 15 min at 4° C. • Pellets were resuspended in ice-cold resuspension buffer and centrifuged at 40,000 g for 15 min at 4° C. • Final pellets were homogenised in ice-cold resuspension buffer. • Protein concentrations were determined by BCA assay method with BSA as standard. Compound Preparation
Compounds were prepared from 10 mM stock solutions in 100% DMSO. Dilutions were made using electronic multichannel pipettes.
• Compounds dilutions were prepared in 100% DMSO at 100× final assay concentration. • Compounds were diluted in 100% DMSO to the appropriate maximal concentration. • 30 μL compound was added to row A. • 21.6 μL of 100% DMSO was added to rows B-H. • Transfer 10 μL from row A into row B (half log dilution). • Transfer 10 μL from row B into row C (half log dilution). • Transfer 10 μL from row C into row D (half log dilution). • Transfer 10 μL from row D into row E (half log dilution). • Transfer 10 μL from row E into row F (half log dilution). • Transfer 10 μL from row F into row G (half log dilution). • Transfer 10 μL from row G into row H (half log dilution). Working Plate Preparation (96-Well Plate) • Compounds were diluted 10-fold in assay buffer. • 10 μL compound solution from dose plate was transferred to corresponding well of working plate. • 90 μL assay buffer was added to the wells of working plate. • Working solutions contained 10% DMSO in assay buffer (1% DMSO final assay concentration). Controls • Total binding (high control) was determined in the absence of unlabelled ligand. A solution of 10% DMSO in assay buffer was prepared. • Non-specific binding (low control) was determined in the presence of a vast excess (10 μM) of PD 123,319. 1 mM stock solution of PD 123,319 in water was diluted 10-fold with 10% DMSO in assay buffer. Assay Plate Preparation (96-Well Plate)
15 μL compound solution was transferred to duplicate wells of assay plate. 5 compounds were tested per plate. 15 μL control solutions were transferred to columns 1 and 12 of assay plate.

[1] = Human hepatocyte stability assay; assay type: in vitro ADME; details: cryopreserved hepatocytes, 1 μM test compound, 0.5 million cells/mL, pH 7.4, 37° C., 60 min; for half-life at 1 μM: read-out: T½
Procedure: A human hepatocyte (cryopreserved) incubation mixture containing, 0.5 million cells/mL and phosphate buffered saline (pH 7.4) was pre-incubated at 37° C. and the reaction then initiated by the addition of 1 μM test compound. The incubations were performed in duplicate. The final organic concentration was 1% (consisting of 90% acetonitrile and 10% DMSO). Positive control markers for Phase I and II metabolism were included. Samples were removed at 6 time-points over 60 min and each reaction terminated by the addition of methanol containing internal standard. After vortexing and centrifugation, the resultant supernatant was analysed by UPLC-MS.
Intrinsic clearance is calculated from the resulting concentration-time profile.
Where C(t) is the compound concentration at time t, C(0) is the starting concentration and k is the elimination rate constant.
The ln(concentration) vs time profile can be mathematically described by: ln C(t)=ln C(0)−kt
Where k represents the slope of the regression line.
Solving for k results in:
Once k is known, half-life (t½) can be calculated using: […]
Furthermore, CLint can be calculated by introducing the cell density ([cell]) in 10^6/ml: […]

Ki (human AT2 receptor)	hepatocyte CLint at 1 μM [1]	half-life at 1 μM [1]	SMILES
2.6 nM	< 3 µL/min/1e6 cells	> 7.67 h	O=C(NS(=O)(=O)C1CC1)[C@@H]1C[C@H](N2CCCOc3cc(F)c(F)cc32)CN1C(=O)C(c1ccccc1)c1ccccc1 [Compound 36, (2S,4S)—N-(Cyclopropylsulfonyl)-4-(7,8-difluoro-3,4-dihydrobenzo[b][1,4]oxazepin-5(2H)-yl)-1-(2,2-diphenylacetyl)pyrrolidine-2-carboxamide]
3.7 nM	< 3 µL/min/1e6 cells	> 7.67 h	C[C@@]1(C(=O)O)C[C@H](N2CCCOc3cc(F)c(F)cc32)CN1C(=O)C(c1ccccc1)c1ccccc1 [Compound 32, (2S,4S)-4-(7,8-Difluoro-3,4-dihydrobenzo[b][1,4]oxazepin-5(2H)-yl)-1-(2,2-diphenylacetyl)-2-methylpyrrolidine-2-carboxylic acid]
6 nM	–	–	O=C(NS(=O)(=O)C1CC1)[C@@H]1C[C@H](N2CCCOc3cc(F)ccc32)CN1C(=O)C(c1ccccc1)c1ccccc1 [Compound 38, (2S,4S)—N-(Cyclopropylsulfonyl)-1-(2,2-diphenylacetyl)-4-(8-fluoro-3,4-dihydrobenzo[b][1,4]oxazepin-5(2H)-yl)pyrrolidine-2-carboxamide]
